Assay results from US20030022909A1, “Use of methylnaltrexone to treat immune suppression” (University of Chicago, priority 2001, published 2003).
Like-named read-outs stand apart in the source and are kept apart here.

Experiments:
[1] = tested on: blood lymphocyte responses; details: cited from earlier work
natural killer cells = assay: Animal study: number of natural killer cells in mice after treatment; format: in vivo; details: ten mice per group
[2] = cited from earlier work
[3] = white crystalline powder as provided; cited from earlier work
[4] = tested on: immune system effects of systemic morphine; details: rats, cited from earlier work
[5] = microinjection into the third ventricle

| SMILES | analgesic responses [1, 5] | inhibition of blood lymphocyte responses [1, 5] | plasma corticosterone concentration [1, 5] | effect on lymphocyte proliferation, plasma corticosterone concentrations or analgesic responses ([1]; systemic administration) | number of natural killer cells present after treatment compared to Group 1 (control) (natural killer cells; Group 3: methylnaltrexone and morphine) | overt side effects ([2]; intravenous 0.45 mg/kg, volunteers) | half-life ([2]; intravenous compound) | solubility in water [3] | antagonism of immune system effects of systemic morphine injection ([4]; administered intracerebroventricularly) | antagonism of immune system effects of systemic morphine injection ([4]; administered subcutaneously) | number of natural killer cells present after treatment compared to Group 1 (control) (natural killer cells; Group 2: placebo and morphine) |
| --- | --- | --- | --- | --- | --- | --- | --- | --- | --- | --- | --- |
| C[N+]1(C)CC[C@]23c4c5ccc(O)c4O[C@H]2[C@@H](O)C=C[C@H]3[C@@H]1C5 [N-methylmorphine] | maximal analgesic responses were present | 70% | significantly elevated | did not effect | – | – | – | – | – | – | – |
| C[N@+]1(CC2CC2)CC[C@]23c4c5ccc(O)c4O[C@H]2C(=O)CC[C@@]3(O)[C@H]1C5 [methylnaltrexone, N-cyclopropylmethylnoroxymorphine-methobromide] | – | – | – | – | comparable number of natural killer cells to Group 1 | not associated with any overt side effects | less than two | freely soluble in water | antagonize most of the immune system effects | failed to do so | – |
| CN1CC[C@]23c4c5ccc(O)c4O[C@H]2[C@@H](O)C=C[C@H]3[C@H]1C5 [morphine] | maximal analgesic responses were present | 70% | – | – | – | – | – | – | – | – | significant decrease in the number of natural killer cells |
